Test results published in the kinase profiling compilation of Christmann-Franck et al. (2016).

Experiments:
Assay in all cases: KINOMEscan competition binding
Settings in all cases: compound 10.0 µM
[1] = system: EGFR (human), P00533 [746-750 del]
[2] = molecular target: HIPK3 (human) (UniProt Q9H422)
[3] = molecular target: OXSR1 (human) (UniProt O95747)
[4] = molecular target: MAP3K1 (human) (UniProt Q13233)
[5] = molecular target: TBK1 (human) (UniProt Q9UHD2)
[6] = molecular target: NEK4 (human) (UniProt P51957)
[7] = molecular target: PIP5K1C (human) (UniProt O60331)
PIP5K1C (human), sequence (O60331 whole entry, looked up): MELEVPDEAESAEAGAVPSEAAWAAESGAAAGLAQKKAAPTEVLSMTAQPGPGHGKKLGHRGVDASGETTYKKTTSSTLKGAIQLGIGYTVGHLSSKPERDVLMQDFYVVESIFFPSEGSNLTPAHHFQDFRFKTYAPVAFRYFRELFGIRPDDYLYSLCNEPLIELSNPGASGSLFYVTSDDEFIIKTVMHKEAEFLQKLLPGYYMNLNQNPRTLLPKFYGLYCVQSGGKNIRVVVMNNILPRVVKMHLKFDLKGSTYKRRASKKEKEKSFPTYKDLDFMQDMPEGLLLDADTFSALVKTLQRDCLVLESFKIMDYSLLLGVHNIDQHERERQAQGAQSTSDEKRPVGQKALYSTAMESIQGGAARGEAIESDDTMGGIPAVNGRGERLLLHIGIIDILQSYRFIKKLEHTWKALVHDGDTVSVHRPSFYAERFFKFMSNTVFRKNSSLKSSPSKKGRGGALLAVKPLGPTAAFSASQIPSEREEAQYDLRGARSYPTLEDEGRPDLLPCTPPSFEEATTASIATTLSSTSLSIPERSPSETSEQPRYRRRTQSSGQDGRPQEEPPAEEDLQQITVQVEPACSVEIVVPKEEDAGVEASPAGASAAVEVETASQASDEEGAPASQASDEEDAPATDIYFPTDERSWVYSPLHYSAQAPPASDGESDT

[8] = molecular target: MAK (human) (UniProt P20794)
[9] = molecular target: PRPF4B (human) (UniProt Q13523)
[10] = molecular target: CDK4 CCND3 (human) (UniProt P11802+P30281)
[11] = molecular target: SNRK (human) (UniProt Q9NRH2)
[12] = molecular target: MAP3K2 (human) (UniProt Q9Y2U5)
[13] = molecular target: CSNK1A1 (human) (UniProt P48729)
[14] = molecular target: SIK3 (human) (UniProt Q9Y2K2)
[15] = molecular target: TIE1 (human) (UniProt P35590)
[16] = molecular target: PKN3 (M.tuberculosis) (UniProt Q6P5Z2)
[17] = molecular target: DYRK2 (human) (UniProt Q92630)
[18] = molecular target: GRK1 (human) (UniProt Q15835)
[19] = molecular target: MAP3K15 (human) (UniProt Q6ZN16)
[20] = molecular target: CDKL3 (human) (UniProt Q8IVW4)
[21] = molecular target: PIP4K2C (human) (UniProt Q8TBX8)
PIP4K2C (human), sequence (Q8TBX8 whole entry, looked up): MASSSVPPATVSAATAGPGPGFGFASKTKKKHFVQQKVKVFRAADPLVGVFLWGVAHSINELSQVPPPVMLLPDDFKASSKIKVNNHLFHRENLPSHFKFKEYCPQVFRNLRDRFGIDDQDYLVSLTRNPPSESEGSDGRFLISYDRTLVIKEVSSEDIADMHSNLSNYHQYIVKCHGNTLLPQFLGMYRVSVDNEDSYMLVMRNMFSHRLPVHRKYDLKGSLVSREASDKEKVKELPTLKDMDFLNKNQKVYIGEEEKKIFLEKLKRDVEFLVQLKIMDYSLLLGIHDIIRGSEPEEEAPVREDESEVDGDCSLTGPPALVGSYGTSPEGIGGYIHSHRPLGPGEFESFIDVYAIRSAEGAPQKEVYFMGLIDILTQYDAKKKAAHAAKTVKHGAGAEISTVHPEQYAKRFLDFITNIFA

[22] = molecular target: CDK13 (human) (UniProt Q14004)
[23] = system: PIK3CA (human), P42336 [I800L]
[24] = molecular target: DSTYK (human) (UniProt Q6XUX3)
[25] = molecular target: TRPM6 (human) (UniProt Q9BX84)
[26] = system: EGFR (human), P00533 [L861Q]
[27] = molecular target: GRK7 (human) (UniProt Q8WTQ7)
GRK7 (human), sequence (Q8WTQ7 whole entry, looked up): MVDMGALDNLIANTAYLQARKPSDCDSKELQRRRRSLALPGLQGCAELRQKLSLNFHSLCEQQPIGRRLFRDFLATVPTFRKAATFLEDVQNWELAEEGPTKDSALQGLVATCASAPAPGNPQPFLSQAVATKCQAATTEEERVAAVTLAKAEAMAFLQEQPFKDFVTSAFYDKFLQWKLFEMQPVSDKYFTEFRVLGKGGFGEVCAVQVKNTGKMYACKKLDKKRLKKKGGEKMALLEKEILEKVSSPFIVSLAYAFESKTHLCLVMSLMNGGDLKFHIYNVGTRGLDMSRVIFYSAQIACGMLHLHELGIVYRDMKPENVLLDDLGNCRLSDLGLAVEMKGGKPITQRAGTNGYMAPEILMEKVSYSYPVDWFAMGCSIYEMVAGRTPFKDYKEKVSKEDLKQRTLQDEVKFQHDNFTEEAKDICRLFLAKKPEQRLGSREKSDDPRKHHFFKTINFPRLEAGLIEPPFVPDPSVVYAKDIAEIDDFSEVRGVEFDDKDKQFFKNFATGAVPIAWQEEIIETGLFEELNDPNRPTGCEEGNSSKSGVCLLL

[28] = molecular target: CRK2 (P.falciparum) (UniProt P61075)
[29] = system: EGFR (human), P00533 [G719S]
[30] = molecular target: MATK (human) (UniProt P42679)
MATK (human), sequence (P42679 whole entry, looked up): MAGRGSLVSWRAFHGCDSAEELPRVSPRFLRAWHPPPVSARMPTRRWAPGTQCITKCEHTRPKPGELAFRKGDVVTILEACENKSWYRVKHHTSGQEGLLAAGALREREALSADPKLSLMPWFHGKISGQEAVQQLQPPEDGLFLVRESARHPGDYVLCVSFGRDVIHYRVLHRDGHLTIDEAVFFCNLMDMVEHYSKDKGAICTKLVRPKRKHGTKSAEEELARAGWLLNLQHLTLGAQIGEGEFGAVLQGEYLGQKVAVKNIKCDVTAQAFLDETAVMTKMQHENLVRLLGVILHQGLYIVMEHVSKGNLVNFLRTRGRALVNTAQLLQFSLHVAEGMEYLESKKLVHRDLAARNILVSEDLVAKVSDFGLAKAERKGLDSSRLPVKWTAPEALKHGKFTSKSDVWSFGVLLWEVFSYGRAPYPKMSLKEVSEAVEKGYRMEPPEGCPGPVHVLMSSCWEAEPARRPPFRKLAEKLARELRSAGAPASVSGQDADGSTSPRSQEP

[31] = molecular target: PIK3CA (human) (UniProt P42336)
[32] = molecular target: EGFR (human) (UniProt P00533)
[33] = molecular target: MAP2K7 (human) (UniProt O14733)
[34] = molecular target: DDR1 (human) (UniProt Q08345)
[35] = molecular target: PIK3C2G (human) (UniProt O75747)
PIK3C2G (human), sequence (O75747 whole entry, looked up): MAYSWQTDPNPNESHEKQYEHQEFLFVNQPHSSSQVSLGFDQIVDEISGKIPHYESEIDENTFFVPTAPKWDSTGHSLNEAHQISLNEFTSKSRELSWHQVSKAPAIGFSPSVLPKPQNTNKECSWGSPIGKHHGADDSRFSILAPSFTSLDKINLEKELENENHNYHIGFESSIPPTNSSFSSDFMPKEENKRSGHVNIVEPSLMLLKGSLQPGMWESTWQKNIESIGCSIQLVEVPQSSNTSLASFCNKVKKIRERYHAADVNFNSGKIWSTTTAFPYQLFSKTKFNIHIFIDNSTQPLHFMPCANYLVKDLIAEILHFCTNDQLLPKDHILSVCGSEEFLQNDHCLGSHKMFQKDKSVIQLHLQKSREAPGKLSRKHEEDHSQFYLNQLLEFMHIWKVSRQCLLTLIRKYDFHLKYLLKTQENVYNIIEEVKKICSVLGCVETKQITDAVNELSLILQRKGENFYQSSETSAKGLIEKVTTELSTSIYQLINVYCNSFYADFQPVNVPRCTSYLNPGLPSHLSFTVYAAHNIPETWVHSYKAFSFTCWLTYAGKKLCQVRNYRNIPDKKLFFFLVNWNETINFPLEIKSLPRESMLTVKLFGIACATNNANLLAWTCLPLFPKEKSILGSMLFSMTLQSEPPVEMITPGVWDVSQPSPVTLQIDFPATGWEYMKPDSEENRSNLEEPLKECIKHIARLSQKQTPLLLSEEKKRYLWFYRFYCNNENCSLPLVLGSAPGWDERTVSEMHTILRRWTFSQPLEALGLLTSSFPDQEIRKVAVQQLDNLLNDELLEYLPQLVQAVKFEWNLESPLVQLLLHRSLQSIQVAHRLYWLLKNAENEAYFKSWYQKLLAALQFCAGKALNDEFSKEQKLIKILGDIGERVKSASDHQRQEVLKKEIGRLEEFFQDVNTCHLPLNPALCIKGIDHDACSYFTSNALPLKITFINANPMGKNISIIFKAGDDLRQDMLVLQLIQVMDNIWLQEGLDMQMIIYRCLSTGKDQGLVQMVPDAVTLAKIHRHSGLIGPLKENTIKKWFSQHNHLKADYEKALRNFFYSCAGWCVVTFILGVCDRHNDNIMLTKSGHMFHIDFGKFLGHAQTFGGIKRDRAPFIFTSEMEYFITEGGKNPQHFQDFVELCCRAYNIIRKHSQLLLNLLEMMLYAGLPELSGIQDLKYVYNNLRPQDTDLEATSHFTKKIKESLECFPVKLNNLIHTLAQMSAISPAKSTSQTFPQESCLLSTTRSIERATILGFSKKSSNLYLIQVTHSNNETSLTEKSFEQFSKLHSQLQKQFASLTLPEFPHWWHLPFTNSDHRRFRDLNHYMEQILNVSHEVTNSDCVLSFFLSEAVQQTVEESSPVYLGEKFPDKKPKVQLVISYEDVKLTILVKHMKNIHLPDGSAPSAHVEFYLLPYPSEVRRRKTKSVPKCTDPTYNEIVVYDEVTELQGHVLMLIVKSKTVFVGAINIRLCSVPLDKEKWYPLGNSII

[36] = molecular target: MAP3K6 (human) (UniProt O95382)
[37] = molecular target: NEK11 (human) (UniProt Q8NG66)
[38] = system: KIT (human), P10721 [V559D/T670I]
[39] = system: EGFR (human), P00533 [P753S; 747-752 del]
[40] = molecular target: STK38 (human) (UniProt Q15208)

HIPK3 (human), sequence (Q9H422 whole entry, looked up): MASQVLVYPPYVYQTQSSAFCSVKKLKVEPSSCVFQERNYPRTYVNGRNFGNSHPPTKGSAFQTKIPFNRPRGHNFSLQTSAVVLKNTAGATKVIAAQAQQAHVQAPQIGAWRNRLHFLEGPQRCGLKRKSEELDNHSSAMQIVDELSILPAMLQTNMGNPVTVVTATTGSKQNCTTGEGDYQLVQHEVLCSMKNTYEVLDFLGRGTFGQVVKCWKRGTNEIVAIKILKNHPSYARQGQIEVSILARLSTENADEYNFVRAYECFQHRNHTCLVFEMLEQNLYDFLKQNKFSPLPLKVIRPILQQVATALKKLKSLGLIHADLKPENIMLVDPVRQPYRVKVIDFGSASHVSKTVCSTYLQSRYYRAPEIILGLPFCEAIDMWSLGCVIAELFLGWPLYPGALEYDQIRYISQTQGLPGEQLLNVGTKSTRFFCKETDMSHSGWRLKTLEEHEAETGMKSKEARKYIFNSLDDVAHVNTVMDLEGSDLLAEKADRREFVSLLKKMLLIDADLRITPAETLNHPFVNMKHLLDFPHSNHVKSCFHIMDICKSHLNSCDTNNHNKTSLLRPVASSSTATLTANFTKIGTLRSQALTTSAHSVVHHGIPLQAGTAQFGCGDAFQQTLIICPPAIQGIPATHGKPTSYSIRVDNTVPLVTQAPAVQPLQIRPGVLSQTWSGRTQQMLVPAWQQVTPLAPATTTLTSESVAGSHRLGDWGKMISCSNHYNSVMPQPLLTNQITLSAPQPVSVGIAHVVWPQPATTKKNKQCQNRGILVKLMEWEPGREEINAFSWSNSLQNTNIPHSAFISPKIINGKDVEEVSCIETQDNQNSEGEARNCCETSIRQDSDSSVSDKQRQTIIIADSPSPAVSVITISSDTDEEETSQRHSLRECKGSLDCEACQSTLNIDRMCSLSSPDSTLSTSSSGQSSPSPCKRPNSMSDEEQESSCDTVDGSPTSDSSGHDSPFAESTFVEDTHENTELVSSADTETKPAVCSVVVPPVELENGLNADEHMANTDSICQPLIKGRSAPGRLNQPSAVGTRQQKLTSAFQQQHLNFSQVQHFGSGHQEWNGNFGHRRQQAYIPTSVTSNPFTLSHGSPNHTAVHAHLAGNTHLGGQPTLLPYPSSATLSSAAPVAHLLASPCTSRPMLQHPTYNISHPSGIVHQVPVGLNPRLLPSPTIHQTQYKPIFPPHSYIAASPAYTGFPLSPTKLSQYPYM

`Cc1ccc2nc(NCCN)c3ncc(C)n3c2c1` was tested, and the kinase still bound, per cent of control [1] was 100%, the kinase still bound, per cent of control [2] was 32% and the kinase still bound, per cent of control [3] was 100%. It also gave a kinase still bound, per cent of control [4] of 74%, a kinase still bound, per cent of control [5] of 100% and a kinase still bound, per cent of control [6] of 100%. It also gave a kinase still bound, per cent of control [7] of 92%, a kinase still bound, per cent of control [8] of 100% and a kinase still bound, per cent of control [9] of 66%. The kinase still bound, per cent of control [10] was 75%, the kinase still bound, per cent of control [11] was 100% and the kinase still bound, per cent of control [12] was 100%. The kinase still bound, per cent of control [13] was 68%, the kinase still bound, per cent of control [14] was 100% and the kinase still bound, per cent of control [15] was 100%. It also gave a kinase still bound, per cent of control [16] of 0%, a kinase still bound, per cent of control [17] of 8.8% and a kinase still bound, per cent of control [18] of 100%. The kinase still bound, per cent of control [19] was 100%, the kinase still bound, per cent of control [20] was 98% and the kinase still bound, per cent of control [21] was 100%. The kinase still bound, per cent of control [22] was 4.7%, the kinase still bound, per cent of control [23] was 100% and the kinase still bound, per cent of control [24] was 100%. For the same compound, the kinase still bound, per cent of control [25] was 87%, the kinase still bound, per cent of control [26] was 100% and the kinase still bound, per cent of control [27] was 100%. For the same compound, the kinase still bound, per cent of control [28] was 100%, the kinase still bound, per cent of control [29] was 100% and the kinase still bound, per cent of control [30] was 100%. For the same compound, the kinase still bound, per cent of control [31] was 100%, the kinase still bound, per cent of control [32] was 100% and the kinase still bound, per cent of control [33] was 100%. For the same compound, the kinase still bound, per cent of control [34] was 100%, the kinase still bound, per cent of control [35] was 23% and the kinase still bound, per cent of control [36] was 100%. It also gave a kinase still bound, per cent of control [37] of 100%, a kinase still bound, per cent of control [38] of 39% and a kinase still bound, per cent of control [39] of 100%.

`Nc1ccc(-c2ccc3ncc4ccc(=O)n(-c5cccc(C(F)(F)F)c5)c4c3c2)cn1` was tested, and the kinase still bound, per cent of control [1] was 92%, the kinase still bound, per cent of control [2] was 92% and the kinase still bound, per cent of control [3] was 100%. For the same compound, the kinase still bound, per cent of control [4] was 100%, the kinase still bound, per cent of control [5] was 100% and the kinase still bound, per cent of control [6] was 100%. It also gave a kinase still bound, per cent of control [7] of 51%, a kinase still bound, per cent of control [8] of 96% and a kinase still bound, per cent of control [9] of 100%. For the same compound, the kinase still bound, per cent of control [10] was 90%, the kinase still bound, per cent of control [11] was 100% and the kinase still bound, per cent of control [12] was 78%. It also gave a kinase still bound, per cent of control [13] of 94%, a kinase still bound, per cent of control [14] of 79% and a kinase still bound, per cent of control [15] of 100%. It also gave a kinase still bound, per cent of control [16] of 63%, a kinase still bound, per cent of control [17] of 88% and a kinase still bound, per cent of control [18] of 100%. It also gave a kinase still bound, per cent of control [19] of 100%, a kinase still bound, per cent of control [20] of 100% and a kinase still bound, per cent of control [21] of 21%. It also gave a kinase still bound, per cent of control [22] of 100%, a kinase still bound, per cent of control [23] of 0% and a kinase still bound, per cent of control [24] of 88%. For the same compound, the kinase still bound, per cent of control [40] was 100%, the kinase still bound, per cent of control [25] was 71% and the kinase still bound, per cent of control [26] was 93%. The kinase still bound, per cent of control [27] was 60%, the kinase still bound, per cent of control [28] was 100% and the kinase still bound, per cent of control [29] was 88%. It also gave a kinase still bound, per cent of control [30] of 100%, a kinase still bound, per cent of control [32] of 100% and a kinase still bound, per cent of control [33] of 100%. For the same compound, the kinase still bound, per cent of control [34] was 100%, the kinase still bound, per cent of control [36] was 100% and the kinase still bound, per cent of control [37] was 80%. For the same compound, the kinase still bound, per cent of control [38] was 68% and the kinase still bound, per cent of control [39] was 98%.

`COc1cc(N2CCN(C)CC2)ccc1Nc1nc(N)c(C(=O)c2c(Cl)cccc2Cl)s1` gave a kinase still bound, per cent of control [1] of 85%, a kinase still bound, per cent of control [2] of 99% and a kinase still bound, per cent of control [3] of 100%. For the same compound, the kinase still bound, per cent of control [4] was 100%, the kinase still bound, per cent of control [5] was 100% and the kinase still bound, per cent of control [6] was 96%. The kinase still bound, per cent of control [7] was 85%, the kinase still bound, per cent of control [8] was 26% and the kinase still bound, per cent of control [9] was 100%. For the same compound, the kinase still bound, per cent of control [11] was 82%, the kinase still bound, per cent of control [12] was 79% and the kinase still bound, per cent of control [13] was 84%. It also gave a kinase still bound, per cent of control [14] of 76%, a kinase still bound, per cent of control [15] of 100% and a kinase still bound, per cent of control [16] of 80%. It also gave a kinase still bound, per cent of control [17] of 89%, a kinase still bound, per cent of control [18] of 100% and a kinase still bound, per cent of control [19] of 51%. The kinase still bound, per cent of control [20] was 86%, the kinase still bound, per cent of control [21] was 46% and the kinase still bound, per cent of control [22] was 83%. The kinase still bound, per cent of control [23] was 96%, the kinase still bound, per cent of control [24] was 52% and the kinase still bound, per cent of control [40] was 100%. The kinase still bound, per cent of control [25] was 5.2%, the kinase still bound, per cent of control [26] was 100% and the kinase still bound, per cent of control [27] was 100%. It also gave a kinase still bound, per cent of control [28] of 87%, a kinase still bound, per cent of control [29] of 88% and a kinase still bound, per cent of control [30] of 61%. For the same compound, the kinase still bound, per cent of control [31] was 99%, the kinase still bound, per cent of control [32] was 100% and the kinase still bound, per cent of control [33] was 100%. For the same compound, the kinase still bound, per cent of control [34] was 98%, the kinase still bound, per cent of control [35] was 100% and the kinase still bound, per cent of control [36] was 100%. It also gave a kinase still bound, per cent of control [37] of 65%, a kinase still bound, per cent of control [38] of 100% and a kinase still bound, per cent of control [39] of 89%.

Compound `O=C(O)c1ccc(Nc2ncc3c(n2)-c2ccc(Cl)cc2C(c2c(F)cccc2F)=NC3)cc1` has a kinase still bound, per cent of control [1] of 28%, a kinase still bound, per cent of control [2] of 80% and a kinase still bound, per cent of control [3] of 94%. It also gave a kinase still bound, per cent of control [4] of 100%, a kinase still bound, per cent of control [5] of 100% and a kinase still bound, per cent of control [6] of 66%. The kinase still bound, per cent of control [7] was 49%, the kinase still bound, per cent of control [8] was 78% and the kinase still bound, per cent of control [9] was 100%. It also gave a kinase still bound, per cent of control [10] of 100%, a kinase still bound, per cent of control [11] of 74% and a kinase still bound, per cent of control [12] of 100%. For the same compound, the kinase still bound, per cent of control [13] was 73%, the kinase still bound, per cent of control [14] was 98% and the kinase still bound, per cent of control [16] was 96%. The kinase still bound, per cent of control [18] was 100%, the kinase still bound, per cent of control [19] was 82% and the kinase still bound, per cent of control [20] was 100%. For the same compound, the kinase still bound, per cent of control [21] was 26%, the kinase still bound, per cent of control [22] was 100% and the kinase still bound, per cent of control [23] was 84%. For the same compound, the kinase still bound, per cent of control [24] was 100%, the kinase still bound, per cent of control [40] was 100% and the kinase still bound, per cent of control [25] was 100%. The kinase still bound, per cent of control [27] was 31%, the kinase still bound, per cent of control [28] was 100% and the kinase still bound, per cent of control [30] was 84%. It also gave a kinase still bound, per cent of control [31] of 100%, a kinase still bound, per cent of control [32] of 43% and a kinase still bound, per cent of control [33] of 100%. The kinase still bound, per cent of control [35] was 16%, the kinase still bound, per cent of control [36] was 99% and the kinase still bound, per cent of control [37] was 100%. It also gave a kinase still bound, per cent of control [39] of 28%.
